Reference: ChEMBL document CHEMBL1201862, “PubChem BioAssay data set” (2004)
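Exposure lasted 48 hours, with cells grown in 96-well plates and compounds tested at five concentrations. Abbreviation: GI50, concentration required for 50% inhibition of growth.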 Calls of active or inactive are those of the source. Rule as the data show it: active = GI50 up to about 1.1 µM and inactive = higher.

Assays:
Experiment in all cases: DTP human tumour cell line panel, 48 h
[1] = test system: K562
[2] = test system: NCI-H23
[3] = test system: SNB-75
[4] = test system: HCT-116
[5] = test system: UACC-62
[6] = test system: SF-268
[7] = test system: A549
[8] = test system: OVCAR-3
[9] = test system: ACHN
[10] = test system: EKVX
[11] = test system: UACC-257
[12] = test system: SK-MEL-5
[13] = test system: Malme-3M
[14] = test system: NCI/ADR-RES
[15] = test system: M14
[16] = test system: PC-3
[17] = test system: IGROV-1
[18] = test system: RPMI-8226
[19] = test system: NCI-H226
[20] = test system: A498

SMILES	GI50 [1]	GI50 [2]	GI50 [3]	GI50 [4]	GI50 [5]	GI50 [6]	GI50 [7]	GI50 [8]	GI50 [9]	GI50 [10]	GI50 [11]	GI50 [12]	GI50 [13]	GI50 [14]	GI50 [15]	GI50 [16]	GI50 [17]	GI50 [18]	GI50 [19]	GI50 [20]
CC(=O)n1nc(-c2ccc3ccccc3c2)nc1C	90.8 µM (inactive)	> 10 µM (inactive)	70.3 µM (inactive)	67.3 µM (inactive)	89.9 µM (inactive)	> 100 µM (inactive)	81.1 µM (inactive)	> 100 µM (inactive)	73.1 µM (inactive)	63 µM (inactive)	83.9 µM (inactive)	36.1 µM (inactive)	> 100 µM (inactive)	> 100 µM (inactive)	> 100 µM (inactive)	62.2 µM (inactive)	> 100 µM (inactive)	–	–	–
COC1=CC(=O)C2[C@H]3Cc4ccccc4[C@H]3C2(C)C1=O (stereo not given in full)	52.1 µM (inactive)	> 100 µM (inactive)	16.9 µM (inactive)	–	> 100 µM (inactive)	> 100 µM (inactive)	> 100 µM (inactive)	> 100 µM (inactive)	> 100 µM (inactive)	> 100 µM (inactive)	> 100 µM (inactive)	> 100 µM (inactive)	> 100 µM (inactive)	–	> 100 µM (inactive)	–	> 100 µM (inactive)	> 100 µM (inactive)	81.8 µM (inactive)	> 100 µM (inactive)
O=C(CC1(O)C(=O)Nc2ccccc21)c1cccc(O)c1 (stereo not given)	> 100 µM (inactive)	> 100 µM (inactive)	> 100 µM (inactive)	> 100 µM (inactive)	> 100 µM (inactive)	> 100 µM (inactive)	> 100 µM (inactive)	> 100 µM (inactive)	> 100 µM (inactive)	> 100 µM (inactive)	> 100 µM (inactive)	48.3 µM (inactive)	> 100 µM (inactive)	–	> 100 µM (inactive)	–	> 100 µM (inactive)	> 100 µM (inactive)	> 100 µM (inactive)	> 100 µM (inactive)
COC1=CC(=O)c2c(cc(COP(=O)(OCC3OC(n4cc(F)c(=O)[nH]c4=O)CC3O)N(C)CCCCCl)n2C)C1=O (stereo not given)	1.98 µM (inactive)	0.142 µM (active)	< 0.0124 µM (active)	0.138 µM (active)	0.0736 µM (active)	< 0.01 µM (active)	< 0.01 µM (active)	1.2 µM (inactive)	< 0.01 µM (active)	3.86 µM (inactive)	18.5 µM (inactive)	0.0329 µM (active)	2.42 µM (inactive)	0.678 µM (active)	0.136 µM (active)	0.173 µM (active)	0.479 µM (active)	< 0.0237 µM (active)	0.546 µM (active)	–
COC(=O)[C@@H]1c2[nH]c3ccccc3c2C[C@@H]2c3ccccc3NC(=O)[C@@H]21	> 100 µM (inactive)	> 90.8 µM (inactive)	12.7 µM (inactive)	37.3 µM (inactive)	> 75.7 µM (inactive)	> 31.6 µM (inactive)	38.8 µM (inactive)	> 53.6 µM (inactive)	> 100 µM (inactive)	53.5 µM (inactive)	> 85.1 µM (inactive)	> 54 µM (inactive)	> 46.5 µM (inactive)	–	> 78.5 µM (inactive)	–	> 100 µM (inactive)	> 49.1 µM (inactive)	18.3 µM (inactive)	> 100 µM (inactive)
CCC(C)c1c(Cl)nc(Cl)nc1Cl (stereo not given)	2.2 µM (inactive)	2.64 µM (inactive)	13.8 µM (inactive)	6.07 µM (inactive)	18.6 µM (inactive)	8.04 µM (inactive)	> 10 µM (inactive)	4.57 µM (inactive)	3.37 µM (inactive)	15.5 µM (inactive)	> 10 µM (inactive)	2.81 µM (inactive)	5.75 µM (inactive)	24.2 µM (inactive)	1.44 µM (inactive)	12.7 µM (inactive)	14.4 µM (inactive)	11 µM (inactive)	2.86 µM (inactive)	–
COc1cc(C(=O)N[C@H]2CCc3cc(OC)c(OC)c(OC)c3-c3ccc(SC)c(=O)cc32)cc(OC)c1OC	0.00583 µM (active)	0.00589 µM (active)	0.252 µM (active)	0.00857 µM (active)	0.0316 µM (active)	0.0218 µM (active)	0.0813 µM (active)	0.00502 µM (active)	0.136 µM (active)	0.0106 µM (active)	0.0586 µM (active)	0.0132 µM (active)	0.02 µM (active)	–	0.00832 µM (active)	–	0.0166 µM (active)	0.0115 µM (active)	< 0.01 µM (active)	0.0403 µM (active)
CN(C)C(=S)/N=c1\ssc(=S)n1Cc1ccccn1	0.748 µM (active)	3.62 µM (inactive)	4.48 µM (inactive)	2.87 µM (inactive)	2.41 µM (inactive)	6 µM (inactive)	3.85 µM (inactive)	2.52 µM (inactive)	8.24 µM (inactive)	3.89 µM (inactive)	4.1 µM (inactive)	3.52 µM (inactive)	2.49 µM (inactive)	–	2.55 µM (inactive)	–	7.29 µM (inactive)	2.31 µM (inactive)	6.5 µM (inactive)	4.84 µM (inactive)
C=Nc1ccc([N+](=O)[O-])cc1	> 44.6 µM (inactive)	> 100 µM (inactive)	> 100 µM (inactive)	> 100 µM (inactive)	> 84.5 µM (inactive)	> 100 µM (inactive)	> 100 µM (inactive)	> 100 µM (inactive)	> 100 µM (inactive)	> 100 µM (inactive)	> 100 µM (inactive)	> 100 µM (inactive)	> 100 µM (inactive)	–	> 100 µM (inactive)	–	> 100 µM (inactive)	> 31.6 µM (inactive)	> 100 µM (inactive)	> 100 µM (inactive)
CC1=[N+]([O-])c2ccccc2C(=O)C1=O	29.1 µM (inactive)	92.9 µM (inactive)	> 100 µM (inactive)	48 µM (inactive)	55.6 µM (inactive)	42.2 µM (inactive)	> 100 µM (inactive)	29.2 µM (inactive)	> 100 µM (inactive)	> 100 µM (inactive)	65.8 µM (inactive)	> 100 µM (inactive)	> 100 µM (inactive)	–	> 100 µM (inactive)	–	> 100 µM (inactive)	35.5 µM (inactive)	15.8 µM (inactive)	> 100 µM (inactive)
N=C(N)N1CCC(N2CCOCC2)CC1	> 100 µM (inactive)	> 100 µM (inactive)	> 100 µM (inactive)	> 100 µM (inactive)	> 100 µM (inactive)	> 100 µM (inactive)	> 100 µM (inactive)	–	> 100 µM (inactive)	> 100 µM (inactive)	> 100 µM (inactive)	> 100 µM (inactive)	> 100 µM (inactive)	> 100 µM (inactive)	> 100 µM (inactive)	–	> 100 µM (inactive)	> 100 µM (inactive)	> 100 µM (inactive)	> 100 µM (inactive)
C/C(N)=[N+](/C)[O-]	39.5 µM (inactive)	> 100 µM (inactive)	> 100 µM (inactive)	> 100 µM (inactive)	> 100 µM (inactive)	46.3 µM (inactive)	> 100 µM (inactive)	> 100 µM (inactive)	31.6 µM (inactive)	> 100 µM (inactive)	> 100 µM (inactive)	> 100 µM (inactive)	> 100 µM (inactive)	–	> 100 µM (inactive)	–	> 100 µM (inactive)	> 100 µM (inactive)	> 100 µM (inactive)	> 100 µM (inactive)
COc1ccc(OC)c(-c2cn3c(n2)sc2ccccc23)c1	> 100 µM (inactive)	> 100 µM (inactive)	> 100 µM (inactive)	> 100 µM (inactive)	64.1 µM (inactive)	> 100 µM (inactive)	> 100 µM (inactive)	> 100 µM (inactive)	> 100 µM (inactive)	> 100 µM (inactive)	> 100 µM (inactive)	65 µM (inactive)	> 100 µM (inactive)	> 100 µM (inactive)	–	30.6 µM (inactive)	> 100 µM (inactive)	> 100 µM (inactive)	> 100 µM (inactive)	–
C[C@]12CCC(=O)C(O)=C1CC[C@@H]1C2CC[C@]2(C)NC(=O)CCC12 (stereo not given in full)	> 100 µM (inactive)	> 100 µM (inactive)	> 100 µM (inactive)	> 100 µM (inactive)	> 100 µM (inactive)	> 100 µM (inactive)	> 100 µM (inactive)	> 100 µM (inactive)	> 100 µM (inactive)	> 100 µM (inactive)	> 100 µM (inactive)	> 100 µM (inactive)	> 100 µM (inactive)	–	> 100 µM (inactive)	–	> 100 µM (inactive)	> 100 µM (inactive)	> 100 µM (inactive)	> 100 µM (inactive)
N[C@H]1C2C3CC4C5CC(C42)C1(c1ccccc1)C53 (stereo not given in full)	> 100 µM (inactive)	> 100 µM (inactive)	> 100 µM (inactive)	> 100 µM (inactive)	> 100 µM (inactive)	> 100 µM (inactive)	> 100 µM (inactive)	> 100 µM (inactive)	> 100 µM (inactive)	> 100 µM (inactive)	> 10 µM (inactive)	> 100 µM (inactive)	> 100 µM (inactive)	–	> 100 µM (inactive)	–	> 100 µM (inactive)	> 100 µM (inactive)	> 100 µM (inactive)	> 100 µM (inactive)
